Assay results taken from patent US20230255969A1, “TARGETING IMMUNE P[…] BY HIGHLY PATHOGENIC CORONAVIRUSES” (priority 2020, published 2023).

Tested on: bone marrow derived mast cells (BMMCs)
Format: cell-based, C57Bl/6 mouse

**Q.** `O=C(O)c1cc(=O)c2c(OCC(O)COc3cccc4oc(C(=O)O)cc(=O)c34)cccc2o1` [cromolyn, 5-[3-(2-carboxy-4-oxochromen-5-yl)oxy-2-hydroxypropoxy]-4-oxochromene-2-carboxylic acid] was tested. Which “Mast cell degranulation in response to SARS-CoV-2 Spike protein (percentage degranulation)” value did it give?
**A.** Its value is “reduced”.
